Reference: ChEMBL document CHEMBL3102801, “Synthesis and antiproliferative activity of new derivatives containing the polycyclic system 5,7:7,13-dimethanopyrazolo[3,4-b]pyrazolo[3',4':2,3]azepino[4,5-f]azocine” (Eur J Med Chem, 2014)

Legend:
MCF7 = experiment: Growth inhibition of human MCF7 cells after 48 hrs by sulforhodamine B assay; type: functional; conditions: MCF7, 48 h
[1] = Growth inhibition of human SF539 cells after 48 hrs by sulforhodamine B assay; type: functional; conditions: SF-539, 48 h
SR = experiment: Growth inhibition of human SR cells after 48 hrs by sulforhodamine B assay; type: functional
[2] = Growth inhibition of human HOP92 cells after 48 hrs by sulforhodamine B assay; type: functional; conditions: HOP-92, 48 h
MOLT-4 = experiment: Growth inhibition of human MOLT4 cells after 48 hrs by sulforhodamine B assay; type: functional; conditions: MOLT-4, 48 h
[3] = Growth inhibition of human Hs 578T cells after 48 hrs by sulforhodamine B assay; type: functional
[4] = biological target: T1, Retinoblastoma-associated protein (Homo sapiens) (UniProt P06400); experiment: Inhibition of pRb p110 phosphorylation in human HCT116 cells after 48 hrs by Western blotting; type: cell-based; conditions: HCT-116
T1 sequence (whole entry): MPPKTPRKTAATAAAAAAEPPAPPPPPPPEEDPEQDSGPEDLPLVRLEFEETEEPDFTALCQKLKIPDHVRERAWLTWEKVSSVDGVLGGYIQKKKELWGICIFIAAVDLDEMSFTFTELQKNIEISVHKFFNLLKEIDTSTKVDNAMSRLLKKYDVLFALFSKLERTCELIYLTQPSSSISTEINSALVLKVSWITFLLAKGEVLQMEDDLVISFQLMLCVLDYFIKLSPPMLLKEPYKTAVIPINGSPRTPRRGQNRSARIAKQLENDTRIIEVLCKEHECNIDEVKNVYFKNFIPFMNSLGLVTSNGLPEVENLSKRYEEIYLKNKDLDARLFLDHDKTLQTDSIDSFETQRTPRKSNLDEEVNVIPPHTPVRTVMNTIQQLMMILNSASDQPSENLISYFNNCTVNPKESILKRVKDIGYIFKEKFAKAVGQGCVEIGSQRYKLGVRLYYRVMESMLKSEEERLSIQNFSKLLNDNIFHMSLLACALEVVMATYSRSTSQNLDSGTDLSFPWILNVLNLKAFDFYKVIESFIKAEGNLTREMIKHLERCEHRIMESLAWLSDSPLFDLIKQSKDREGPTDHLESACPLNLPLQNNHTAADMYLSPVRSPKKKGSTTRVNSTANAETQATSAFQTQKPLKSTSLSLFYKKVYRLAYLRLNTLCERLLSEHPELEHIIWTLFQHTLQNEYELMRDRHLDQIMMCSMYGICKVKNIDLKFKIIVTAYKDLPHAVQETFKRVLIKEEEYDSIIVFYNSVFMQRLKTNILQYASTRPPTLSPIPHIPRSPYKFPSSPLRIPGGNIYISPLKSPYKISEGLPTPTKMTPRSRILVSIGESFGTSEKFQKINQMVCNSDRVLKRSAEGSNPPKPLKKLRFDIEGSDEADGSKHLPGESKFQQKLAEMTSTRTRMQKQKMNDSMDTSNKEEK

SK-MEL-2 = experiment: Growth inhibition of human SK-MEL-2 cells after 48 hrs by sulforhodamine B assay; type: functional; conditions: SK-MEL-2, 48 h
MDA-MB-231 [5] = experiment: Cell cycle arrest in human MDA-MB-231 cells assessed as accumulation of G0-G1 phase at 5 uM after 48 hrs using propidium iodide staining by flow cytometric analysis (reference value: 42.2%); type: functional
U-251 = experiment: Growth inhibition of human U251 cells after 48 hrs by sulforhodamine B assay; type: functional; conditions: U-251, 48 h
[6] = biological target: T1, Retinoblastoma-associated protein (Homo sapiens); experiment: Inhibition of pRb p110 phosphorylation in human MDA-MB-231 cells after 48 hrs by Western blotting; type: cell-based
CAKI-1 = experiment: Growth inhibition of human CAKI-1 cells after 48 hrs by sulforhodamine B assay; type: functional; conditions: CAKI-1, 48 h
Malme-3M = experiment: Growth inhibition of human MALME-3M cells after 48 hrs by sulforhodamine B assay; type: functional
MDA-MB-231 [7] = experiment: Cell cycle arrest in human MDA-MB-231 cells assessed as accumulation of G0-G1 phase at 10 uM after 48 hrs using propidium iodide staining by flow cytometric analysis (reference value: 42.2%); type: functional
MDA-MB-231 [8] = experiment: Cell cycle arrest in human MDA-MB-231 cells assessed as accumulation of sub-G0-G1 phase at 10 uM after 48 hrs using propidium iodide staining by flow cytometric analysis (reference value: 8.4%); type: functional
SW-620 = experiment: Growth inhibition of human SW620 cells after 48 hrs by sulforhodamine B assay; type: functional; conditions: SW-620, 48 h
NCI-H226 = experiment: Growth inhibition of human NCI-H226 cells after 48 hrs by sulforhodamine B assay; type: functional; conditions: NCI-H226, 48 h
[9] = Growth inhibition of human NCI-ADR-RES cells after 48 hrs by sulforhodamine B assay; type: functional
HCT-116 [10] = experiment: Cell cycle arrest in human HCT116 cells assessed as accumulation of sub-G0-G1 phase at 10 uM after 48 hrs using propidium iodide staining by flow cytometric analysis (reference value: 15.2%); type: functional
HCT-15 = experiment: Growth inhibition of human HCT15 cells after 48 hrs by sulforhodamine B assay; type: functional; conditions: HCT-15, 48 h
TK-10 = experiment: Growth inhibition of human TK10 cells after 48 hrs by sulforhodamine B assay; type: functional; conditions: TK-10, 48 h
[11] = Growth inhibition of human OVCAR5 cells after 48 hrs by sulforhodamine B assay; type: functional; conditions: OVCAR-5, 48 h
HCT-116 [12] = experiment: Cell cycle arrest in human HCT116 cells assessed as accumulation of sub-G0-G1 phase at 5 uM after 48 hrs using propidium iodide staining by flow cytometric analysis (reference value: 15.2%); type: functional
LOX IMVI = experiment: Growth inhibition of human LOXIMVI cells after 48 hrs by sulforhodamine B assay; type: functional
A549 = experiment: Growth inhibition of human A549 cells after 48 hrs by sulforhodamine B assay; type: functional; conditions: A549, 48 h
OVCAR-3 = experiment: Growth inhibition of human OVCAR3 cells after 48 hrs by sulforhodamine B assay; type: functional; conditions: OVCAR-3, 48 h
UACC-62 = experiment: Growth inhibition of human UACC62 cells after 48 hrs by sulforhodamine B assay; type: functional; conditions: UACC-62, 48 h
CCRF-CEM = experiment: Growth inhibition of human CCRF-CEM cells after 48 hrs by sulforhodamine B assay; type: functional
IGROV-1 = experiment: Growth inhibition of human IGROV1 cells after 48 hrs by sulforhodamine B assay; type: functional; conditions: IGROV-1, 48 h
[13] = Growth inhibition of human OVCAR4 cells after 48 hrs by sulforhodamine B assay; type: functional; conditions: OVCAR-4, 48 h
HCT-116 [14] = experiment: Cell cycle arrest in human HCT116 cells assessed as accumulation of G0-G1 phase at 5 uM after 48 hrs using propidium iodide staining by flow cytometric analysis (reference value: 45.7%); type: functional
[15] = Therapeutic index, ratio of IC50 for human HeDe cells to IC50 for human HCT116 cells; type: cell-based, HCT-116; conditions: HeDe cells versus HCT116 cells, read-out: TI
KM12 = experiment: Growth inhibition of human KM12 cells after 48 hrs by sulforhodamine B assay; type: functional; conditions: KM12, 48 h

In the case of C=C1c2c(C)nn(-c3ccc(OC)cc3)c2N(C)C23CC1C1(C)c4c(C)nn(-c5ccc(OC)cc5)c4N(C)C(C)(CC12)C3 (stereo not drawn), the GI50 (MCF7) is reported as 2.69 µM, the GI50 [1] is reported as 3.16 µM and the GI50 (SR) is reported as 3.16 µM. For the same compound, the GI50 [2] was 1.18 µM, the GI50 (MOLT-4) was 2.6 µM and the GI50 [3] was 6.24 µM. For the same compound, the inhibition [4] was “Dose-dependent effect”, the GI50 (SK-MEL-2) was 3.23 µM and the Activity (MDA-MB-231 [5]) was 53.5%. For the same compound, the GI50 (U-251) was 2.67 µM, the inhibition [6] was “Dose-dependent effect” and the GI50 (CAKI-1) was 2.67 µM. The GI50 (Malme-3M) was 3.24 µM, the Activity (MDA-MB-231 [7]) was 58.2% and the Activity (MDA-MB-231 [8]) was 4.6%. For the same compound, the GI50 (SW-620) was 3.63 µM, the GI50 (NCI-H226) was 4.44 µM and the GI50 [9] was 4.04 µM. The Activity (HCT-116 [10]) was 13.5%, the GI50 (HCT-15) was 3.11 µM and the GI50 (TK-10) was 3.63 µM. For the same compound, the GI50 [11] was 11.3 µM, the Activity (HCT-116 [12]) was 14.3% and the GI50 (LOX IMVI) was 2.24 µM. The GI50 (A549) was 2.69 µM, the GI50 (OVCAR-3) was 3.27 µM and the GI50 (UACC-62) was 2.86 µM. It also gave a GI50 (CCRF-CEM) of 3.41 µM, a GI50 (IGROV-1) of 7.54 µM and a GI50 [13] of 3.56 µM. The Activity (HCT-116 [14]) was 59%, the selectivity ratio [15] was 26.9 and the GI50 (KM12) was 3.75 µM.
